Measurements published in article PMC4175000 (Journal of Medicinal Chemistry, 2014).
Each block holds one compound with its values, some of them ahead of it.

Tests used:
human M5 receptors = target: T1, human M5 receptors (Homo sapiens, UniProt P08912); test: hM5 PAM calcium mobilization assay; type: cell-based; settings: for improvement in hM5 PAM EC50 over the naked phenylsulfonamide: versus 6a
T1 sequence (P08912 1-532): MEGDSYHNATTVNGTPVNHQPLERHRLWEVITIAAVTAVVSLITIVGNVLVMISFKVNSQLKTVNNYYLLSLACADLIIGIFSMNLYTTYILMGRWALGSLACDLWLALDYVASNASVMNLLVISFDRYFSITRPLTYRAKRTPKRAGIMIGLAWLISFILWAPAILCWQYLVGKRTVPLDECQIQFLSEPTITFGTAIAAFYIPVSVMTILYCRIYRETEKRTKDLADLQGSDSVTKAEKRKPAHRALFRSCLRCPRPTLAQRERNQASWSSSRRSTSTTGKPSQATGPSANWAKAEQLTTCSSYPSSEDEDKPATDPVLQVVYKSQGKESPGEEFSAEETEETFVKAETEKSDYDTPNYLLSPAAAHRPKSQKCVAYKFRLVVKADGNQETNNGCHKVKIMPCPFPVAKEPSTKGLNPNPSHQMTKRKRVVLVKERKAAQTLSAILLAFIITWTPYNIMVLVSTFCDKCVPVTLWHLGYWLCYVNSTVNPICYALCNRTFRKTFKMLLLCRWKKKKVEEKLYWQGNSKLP

hM5 receptor [1] = target: T2, hM5 receptor (Homo sapiens, UniProt P08912); test: ACh CRC fold shift, calcium mobilization; type: cell-based; settings: compound at 10 μM; leftward shift in ACh potency at hM5; average ± SEM, n = 3–4
T2 sequence (P08912 1-532): T1 sequence (P08912 1-532)

[2] = in vitro metabolite identification; type: in vitro ADME
hM4 = target: T3, hM4 (Homo sapiens, UniProt P08173); test: muscarinic selectivity calcium mobilization, hM4/Gqi5; type: cell-based; settings: CHO hM4/Gqi5
T3 sequence (P08173 1-479): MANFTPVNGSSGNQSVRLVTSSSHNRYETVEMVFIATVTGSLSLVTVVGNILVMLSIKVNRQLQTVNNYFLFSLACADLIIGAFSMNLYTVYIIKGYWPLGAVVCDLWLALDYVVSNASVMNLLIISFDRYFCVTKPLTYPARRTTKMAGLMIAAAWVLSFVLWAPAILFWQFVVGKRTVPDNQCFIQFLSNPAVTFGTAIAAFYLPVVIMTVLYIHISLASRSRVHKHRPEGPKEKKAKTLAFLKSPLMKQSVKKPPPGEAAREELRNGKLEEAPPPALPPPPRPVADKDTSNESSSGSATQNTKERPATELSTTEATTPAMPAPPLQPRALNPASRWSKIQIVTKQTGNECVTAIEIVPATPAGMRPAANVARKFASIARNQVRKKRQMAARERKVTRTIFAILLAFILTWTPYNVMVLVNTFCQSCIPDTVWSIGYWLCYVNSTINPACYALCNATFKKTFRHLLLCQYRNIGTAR

[3] = hepatic microsomal intrinsic clearance, rat; type: in vitro ADME
hM2 = target: T4, hM2 (Homo sapiens, UniProt P08172); test: muscarinic selectivity calcium mobilization, hM2/Gqi5; type: cell-based; settings: CHO hM2/Gqi5
T4 sequence (P08172 1-466): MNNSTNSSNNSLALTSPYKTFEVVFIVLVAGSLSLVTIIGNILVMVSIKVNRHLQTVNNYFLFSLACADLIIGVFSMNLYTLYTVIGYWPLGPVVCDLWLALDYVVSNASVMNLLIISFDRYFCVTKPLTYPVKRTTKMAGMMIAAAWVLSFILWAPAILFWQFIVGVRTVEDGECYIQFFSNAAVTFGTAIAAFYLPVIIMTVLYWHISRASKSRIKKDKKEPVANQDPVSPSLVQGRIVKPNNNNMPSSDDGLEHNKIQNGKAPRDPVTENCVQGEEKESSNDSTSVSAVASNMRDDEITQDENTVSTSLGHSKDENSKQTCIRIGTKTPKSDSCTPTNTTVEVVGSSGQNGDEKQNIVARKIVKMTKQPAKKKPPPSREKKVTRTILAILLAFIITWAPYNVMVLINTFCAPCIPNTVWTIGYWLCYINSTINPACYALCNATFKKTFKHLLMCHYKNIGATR

hM5 receptor [4] = target: T2, hM5 receptor; test: [3H]NMS competition binding, hM5 CHO membranes; settings: 0.3 nM [3H]NMS
[5] = hepatic microsomal intrinsic clearance, human; type: in vitro ADME
hM1 = target: T5, hM1 (Homo sapiens, UniProt P11229); test: muscarinic selectivity calcium mobilization, hM1; type: cell-based; settings: hM5 versus hM1 PAM potency
T5 sequence (P11229 1-460): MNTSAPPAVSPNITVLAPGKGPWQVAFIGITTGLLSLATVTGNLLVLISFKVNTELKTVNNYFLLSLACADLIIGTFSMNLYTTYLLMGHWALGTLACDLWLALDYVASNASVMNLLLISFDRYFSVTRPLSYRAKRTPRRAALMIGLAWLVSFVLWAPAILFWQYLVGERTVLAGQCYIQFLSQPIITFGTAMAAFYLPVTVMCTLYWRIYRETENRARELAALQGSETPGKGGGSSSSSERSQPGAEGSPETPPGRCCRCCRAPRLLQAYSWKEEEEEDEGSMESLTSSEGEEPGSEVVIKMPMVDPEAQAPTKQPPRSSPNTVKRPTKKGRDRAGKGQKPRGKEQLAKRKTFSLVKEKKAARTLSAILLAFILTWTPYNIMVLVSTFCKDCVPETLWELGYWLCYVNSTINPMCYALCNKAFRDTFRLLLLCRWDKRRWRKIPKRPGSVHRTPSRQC

hM3 = hM3 (Homo sapiens, UniProt P20309); test: muscarinic selectivity calcium mobilization, hM3; type: cell-based; settings: hM5 versus hM3 PAM potency
Chain of hM3 (P20309 whole entry): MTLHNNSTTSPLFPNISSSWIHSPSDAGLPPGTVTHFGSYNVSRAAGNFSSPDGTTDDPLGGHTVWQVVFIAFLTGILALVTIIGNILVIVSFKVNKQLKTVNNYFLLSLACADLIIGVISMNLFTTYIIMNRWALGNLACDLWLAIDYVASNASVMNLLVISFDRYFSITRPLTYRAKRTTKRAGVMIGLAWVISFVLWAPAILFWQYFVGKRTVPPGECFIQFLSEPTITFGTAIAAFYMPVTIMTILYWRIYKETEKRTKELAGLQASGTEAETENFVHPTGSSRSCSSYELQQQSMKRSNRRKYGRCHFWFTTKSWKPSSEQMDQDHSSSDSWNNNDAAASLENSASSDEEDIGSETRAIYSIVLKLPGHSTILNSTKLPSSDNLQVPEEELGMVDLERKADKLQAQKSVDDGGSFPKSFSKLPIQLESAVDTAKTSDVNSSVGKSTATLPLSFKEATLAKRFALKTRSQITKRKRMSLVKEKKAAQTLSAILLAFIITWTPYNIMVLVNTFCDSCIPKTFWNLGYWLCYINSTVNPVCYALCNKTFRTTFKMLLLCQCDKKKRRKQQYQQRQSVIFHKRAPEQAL

SMILES: CCN(Cc1ccccc1)C(=O)C1CCN(S(=O)(=O)c2ccc3occc3c2)CC1 [6o]
improvement in hM5 PAM EC50 over the naked phenylsulfonamide (human M5 receptors): approximately 3 fold

SMILES: CCN(Cc1ccccc1)C(=O)C1CCN(S(=O)(=O)c2ccc3[nH]ncc3c2)CC1 [6p]
improvement in hM5 PAM EC50 over the naked phenylsulfonamide (human M5 receptors): approximately 3 fold

SMILES: CCN(Cc1ccccc1)C(=O)C1CCN(S(=O)(=O)c2ccc3cn[nH]c3c2)CC1 [6q]
improvement in hM5 PAM EC50 over the naked phenylsulfonamide (human M5 receptors): approximately 3 fold

SMILES: CCN(Cc1ccccc1C(F)(F)F)C(=O)C1CCN(S(=O)(=O)c2ccc3[nH]ncc3c2)CC1 [8n, 1-((1H-Indazol-5-yl)sulfonyl)-N-ethyl-N-(2-(trifluoromethyl)benzyl)piperidine-4-carboxamide]
activity at hM4 (in words) (hM4): no activity | hepatic microsomal intrinsic clearance CLint ([3]; rat): 2600 mL min^–1 kg^–1 | predicted hepatic clearance CLhep ([3]; rat): 68 mL min^–1 kg^–1 | CLint scaled at 1 µM ([3]; rat, liver microsomes, pH 7.4): 2600 mL/min/kg | predicted CLhep (mL/min/kg) ([3]; rat, well-stirred model from CLint, not corrected for fu plasma): rat: 68 mL/min/kg | activity at hM2 (in words) (hM2): no activity | ACh fold shift (hM5 receptor [1]): 7- to 12 fold | effect on [3H]NMS binding (in words) (hM5 receptor [4]): no inhibitory effect | hepatic microsomal intrinsic clearance CLint [5]: 540 mL min^–1 kg^–1 | predicted hepatic clearance CLhep [5]: 20 mL min^–1 kg^–1 | CLint scaled at 1 µM ([5]; liver microsomes, pH 7.4): 540 mL/min/kg | predicted CLhep (mL/min/kg) ([5]; well-stirred model from CLint, not corrected for fu plasma): human: 20 mL/min/kg | hM5 PAM potency relative to des-CF3 congener 6p (human M5 receptors; more potent): 8 fold | selectivity over hM1 (hM1): greater than 10 fold | selectivity over hM3 (hM3): greater than 10 fold

Continued, in another order:

ACh fold shift (hM5 receptor [1]): 7- to 12 fold | improvement in hM5 potency relative to des-methyl analog 6b (human M5 receptors): 3 fold
SMILES: CCN(C(=O)C1CCN(S(=O)(=O)c2ccc(OC)cc2)CC1)[C@H](C)c1ccccc1 [7b]

ACh fold shift (hM5 receptor [1]): 7- to 12 fold
SMILES: CCN(C(=O)C1CCN(S(=O)(=O)c2ccc3[nH]ncc3c2)CC1)[C@H](C)c1ccccc1 [7g]
primary site of metabolism [2]: N-ethyl moiety as the primary site of metabolism

ACh fold shift (hM5 receptor [1]): 7- to 12 fold
SMILES: CCN(Cc1ccccc1C(F)(F)F)C(=O)C1CCN(S(=O)(=O)c2ccc3cn[nH]c3c2)CC1 [8j]

activity at hM5 (in words) (human M5 receptors; PAM, calcium mobilization): complete absence of activity
SMILES: O=C(C1CCN(S(=O)(=O)c2ccc3[nH]ncc3c2)CC1)N(Cc1ccccc1C(F)(F)F)C1CC1 [9d]
change of intrinsic microsomal clearance (in words) ([3]; relative to the other analogs (rat CLint > 500)): reduce intrinsic microsomal clearance by an order of magnitude
